Some test systems named below: CAKI-1; CCRF-CEM; HCT-116; HL-60; HOP-62; HOP-92; HT-29; K562; MCF7; NCI-H226; NCI/ADR-RES; SF-295; SK-MEL-2; SK-OV-3; SNB-19; SNB-75; SR; TK-10; U-251.
What all share (assay): NCI-60 cell line screen, 48 h

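How tested: cells in 96-well plates exposed to compound for 48 hours at five concentrations. GI50 is the concentration that inhibits growth by half.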 The source made the active and inactive calls. Cut-off read from the data, not from the text of the source: active = GI50 up to about 1.1 µM and inactive = higher. A value given as a limit tells only on which side of the number the result lay.

Take `CN(C)c1ccc(/C=c2\c3cc([N+](=O)[O-])ccc3n3c2cc(-c2ccccc2)[n+]3C)cc1`: the GI50 is 7.66 µM (inactive) in the experiment with CAKI-1; 0.601 µM (active) in the experiment with CCRF-CEM; 0.885 µM (active) in the experiment on HCT-116; 0.292 µM (active) in the experiment with HL-60; 2.04 µM (inactive) with HOP-62; 1.18 µM (inactive) with HOP-92. The GI50 with HT-29 is 1.52 µM (inactive); in the experiment on K562, 0.265 µM (active); in the experiment with MCF7, 0.791 µM (active); in the experiment with NCI-H226 it was 2.75 µM (inactive); in the experiment with NCI/ADR-RES, 39.8 µM (inactive); in the experiment on SF-295 it was 2.32 µM (inactive). The GI50 with SK-MEL-2 is 0.521 µM (active); with SK-OV-3, 3.92 µM (inactive); in the experiment on SNB-19, 0.925 µM (active); in the experiment with SNB-75, 1.07 µM (active); with SR it was 0.29 µM (active); in the experiment with TK-10, 2.64 µM (inactive). The GI50 in the experiment with U-251 was 0.327 µM (active).

On to `COc1ccc(Cn2c3c(cc(OC(C)=O)c2=O)Cc2ccccc2-3)cc1`, for which the GI50 in the experiment with CAKI-1 is 10.7 µM (inactive); in the experiment with CCRF-CEM, 2 µM (inactive); in the experiment on HCT-116 it was 6.52 µM (inactive); in the experiment on HL-60 it was 5.64 µM (inactive); in the experiment on HOP-62 it was 14.9 µM (inactive); with HOP-92, 9.98 µM (inactive). The GI50 in the experiment on HT-29 is 10.7 µM (inactive); in the experiment on K562 it was 11.6 µM (inactive); in the experiment with MCF7 it was 13.7 µM (inactive); in the experiment with NCI-H226, 14.3 µM (inactive); in the experiment with NCI/ADR-RES, 1.81 µM (inactive); in the experiment with SF-295, 17 µM (inactive). For the same compound, the GI50 in the experiment with SK-MEL-2 was 4.61 µM (inactive); in the experiment on SK-OV-3, 20 µM (inactive); with SNB-19, 12.9 µM (inactive); with SNB-75 it was 11.7 µM (inactive); in the experiment on SR, 2.14 µM (inactive); in the experiment on TK-10 it was 13.1 µM (inactive). Further, the GI50 in the experiment with U-251 is 8.65 µM (inactive).

As to `CCc1ccc2nccc(NCCCN(C)C)c2c1[N+](=O)[O-]`, the GI50 in the experiment on CAKI-1 was 46.6 µM (inactive); in the experiment with CCRF-CEM, > 100 µM (inactive); with HCT-116 it was 41.2 µM (inactive); in the experiment with HL-60, > 100 µM (inactive); in the experiment on HOP-62, > 100 µM (inactive); in the experiment on HOP-92, > 100 µM (inactive). Besides, the GI50 in the experiment on HT-29 was 33.4 µM (inactive); in the experiment with K562, 42.8 µM (inactive); in the experiment on MCF7, 72.9 µM (inactive); in the experiment on NCI-H226, > 100 µM (inactive); with NCI/ADR-RES it was > 100 µM (inactive); in the experiment on SF-295 it was 75.7 µM (inactive). The GI50 in the experiment with SK-MEL-2 is > 100 µM (inactive); with SK-OV-3, > 100 µM (inactive); with SNB-19 it was > 100 µM (inactive); in the experiment on SNB-75 it was 50 µM (inactive); in the experiment on SR it was > 100 µM (inactive); in the experiment on TK-10, > 100 µM (inactive). The GI50 in the experiment with U-251 was > 100 µM (inactive).

For `O=C1/C(=C\Oc2ccc(F)cc2)N2CCC1CC2`, the GI50 in the experiment on CAKI-1 was 84.9 µM (inactive); with CCRF-CEM it was 34.4 µM (inactive); in the experiment on HCT-116, 34.8 µM (inactive); in the experiment with HL-60, 35.2 µM (inactive); in the experiment with HOP-62, > 100 µM (inactive); in the experiment on HOP-92, 41.4 µM (inactive). Also, the GI50 in the experiment on HT-29 was 60.1 µM (inactive); in the experiment with K562, 32.7 µM (inactive); with MCF7 it was 49 µM (inactive); with NCI-H226, 35.5 µM (inactive); with NCI/ADR-RES it was 46.2 µM (inactive); with SF-295, > 100 µM (inactive). Moreover, the GI50 was 61.2 µM (inactive) in the experiment with SK-MEL-2; > 100 µM (inactive) in the experiment on SK-OV-3; 56.6 µM (inactive) in the experiment on SNB-19; 24.8 µM (inactive) with SNB-75; 16.4 µM (inactive) in the experiment with SR; 55.3 µM (inactive) in the experiment on TK-10. Further, the GI50 in the experiment with U-251 was 77.1 µM (inactive).

`N#Cc1ccccc1OCCOc1ccccc1C#N`: the GI50 in the experiment on CAKI-1, in the experiment on CCRF-CEM, in the experiment on HCT-116, with HL-60, in the experiment on HOP-62 and in the experiment with HOP-92 was > 100 µM (inactive) each time. The GI50 was > 100 µM (inactive) with HT-29; 20.3 µM (inactive) in the experiment with K562; > 100 µM (inactive) in the experiment on MCF7; > 100 µM (inactive) in the experiment with NCI-H226; > 100 µM (inactive) in the experiment with NCI/ADR-RES; > 100 µM (inactive) in the experiment with SF-295. Besides, the GI50 in the experiment with SK-MEL-2 was > 100 µM (inactive); in the experiment on SK-OV-3, > 100 µM (inactive); in the experiment with SNB-19, > 100 µM (inactive); with SNB-75 it was 61.9 µM (inactive); with SR, > 100 µM (inactive); with TK-10, > 100 µM (inactive). In addition, the GI50 in the experiment with U-251 is 61 µM (inactive).

`N#CC(c1ccccc1)N1CCCN(C(C#N)c2ccccc2)C1c1ccccc1O` (configuration not stated): the GI50 with CAKI-1 is > 100 µM (inactive); in the experiment with CCRF-CEM, 40.1 µM (inactive); in the experiment on HCT-116, 93.5 µM (inactive); with HL-60, 0.0362 µM (active); with HOP-62, > 100 µM (inactive); with HOP-92, 22.7 µM (inactive). Also, the GI50 in the experiment on HT-29 was 55.8 µM (inactive); with K562 it was > 100 µM (inactive); in the experiment with MCF7, > 100 µM (inactive); with NCI-H226, > 100 µM (inactive); in the experiment on NCI/ADR-RES, > 100 µM (inactive); in the experiment with SF-295 it was > 100 µM (inactive). Moreover, the GI50 in the experiment on SK-MEL-2, with SK-OV-3, in the experiment on SNB-19, with SNB-75, with SR and with TK-10 was > 100 µM (inactive) each time. In addition, the GI50 in the experiment with U-251 was > 100 µM (inactive).

On to `CC[C@]1(O)CC(OC2CC(N(C)C)C(O)C(C)O2)c2c(cc3c(c2O)C(=O)c2c(O)cccc2C3=O)[C@@H]1C(=O)OC` (some centres not stated), for which the GI50 was 0.0466 µM (active) in the experiment with CAKI-1; 0.117 µM (active) in the experiment with CCRF-CEM; 0.0455 µM (active) with HCT-116; 0.249 µM (active) in the experiment with HL-60; 0.146 µM (active) in the experiment on HOP-62; 0.22 µM (active) in the experiment on HOP-92. The GI50 in the experiment on HT-29 was 0.107 µM (active); in the experiment with K562, 0.0733 µM (active); in the experiment on MCF7, 0.292 µM (active); in the experiment with NCI-H226 it was 0.243 µM (active); with NCI/ADR-RES, 0.269 µM (active); in the experiment on SF-295, 0.195 µM (active). Besides, the GI50 with SK-MEL-2 was 0.381 µM (active); with SK-OV-3 it was 0.333 µM (active); in the experiment on SNB-19, 0.328 µM (active); in the experiment on SNB-75 it was 0.201 µM (active); in the experiment on SR it was 0.0538 µM (active); in the experiment with TK-10, 0.472 µM (active). In addition, the GI50 with U-251 was 0.151 µM (active).

For the compound `OCc1cccc(Nc2nc(O)c3[nH]cnc3n2)c1`, the GI50 in the experiment with CAKI-1, in the experiment with CCRF-CEM, in the experiment on HCT-116, with HL-60, with HOP-62 and in the experiment on HOP-92 was > 100 µM (inactive) throughout. The GI50 with HT-29, in the experiment with K562, in the experiment with MCF7, with NCI-H226, with NCI/ADR-RES and in the experiment with SF-295 was > 100 µM (inactive) throughout. The GI50 in the experiment with SK-MEL-2, in the experiment with SK-OV-3, with SNB-19, in the experiment with SNB-75, with SR and in the experiment on TK-10 was > 100 µM (inactive) throughout. Also, the GI50 with U-251 is > 100 µM (inactive).

Values taken from ChEMBL document CHEMBL1201862, “PubChem BioAssay data set” (2004).
